Results reported in patent US10105401B2, “Composition comprising bioactive amino acids and/or peptides and marine oil in a stable oil-in-water emulsion, and the use of said composition as a functional or therapeutic composition” (SMARTFISH AS, priority 2009, dated 2018).

Key:
[1] = when supplemented as part of Smartfish; skeletal muscle, heart, brain
Procedure: The tissues were finally analyzed for the content of carnosine, both labeled and non-labeled.
This amount equals 200 mg/kg per day. After one week, the following organs were dissected out; gastrocnemius, heart and brain and immediately frozen in liquid nitrogen, and stored at −80° C.
Carnosine (Sigma-Aldrich) and 15N13C2-labeled carnosine (Sigma-Aldrich) concentrations in tissue were determined by HPLC-MS/MS operated in MRM mode.
Mouse tissues were homogenized in Methanolic HCL using a pellet grinder with cordless motor (Kontes). The homogenate was incubated for 30 min at 50° C. This procedure homogenized the tissue, precipitated proteins and methylated the carboxcylic acid group.
After centrifugation, the supernatant were injected directly into the LC-MS/MS system. Calibrators were prepared by methylation of non labeled carnosine in methanolic HCl. The HPLC column used was a Zorbax XDB 150×4.6 mm ID with 5 μm particles. A gradient elution starting with 10% MeOH in water and 4 g/l ammonium acetate 40% MeOH for 3 minutes changing linearly to 100% methanol over 3.5 minutes was used to separate carnosine from other constituents.

[2] = cited from earlier work

For `NCCC(=O)O` [β-alanine], the “bioavailability and tissue uptake of β-alanine” value [1] is given as “bioavailable and taken up by all the three target tissues”, the “reduction of muscle carnosine levels per week in washout” value ([2]; human volunteers, nine week washout after six weeks of β-alanine) is given as 2.5-3.5 % reduction/week and the “average increase in muscle carnosine” value ([2]; humans, six week period, 4.8 g β-alanine per day) is given as 27%.
